In patent US4508663A, “Process for preparing thiosulfenamide derivatives of N-phosphonomethylglycinonitriles” (Monsanto Company, priority 1983, dated 1985):

Key:
Test in all cases: post-emergence herbicidal activity, greenhouse
Assay type in all cases: in vivo
Hemp Sesbania = settings: Table II, 4 WAT
In short: (§1)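 Plants grown from seed or perennial propagules in greenhouse soil pans were sprayed at two to three weeks with compound solution or suspension containing about 0.4% emulsifier, at the stated application rates. Injury relative to untreated controls was scored at approximately two and four weeks after treatment on a post-emergence activity index.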

Downy Brome = settings: 4 WAT
In short: as §1

Wheat = settings: Table II, 4 WAT
In short: as §1

Canada Thistle = settings: Table I, 4 WAT
In short: as §1

Quackgrass = settings: Table I, 4 WAT
In short: as §1

Yellow Nutsedge = settings: Table I, 4 WAT
In short: as §1

Velvetleaf = settings: 4 WAT
In short: as §1

Crabgrass = settings: Table II, 4 WAT
In short: as §1

Cocklebur = settings: 4 WAT
In short: as §1

Panicum Spp = settings: Table II, 4 WAT
In short: as §1

Lambsquarters = settings: 4 WAT
In short: as §1

Wild Buckwheat = settings: Table II, 4 WAT
In short: as §1

Sorghum = settings: Table II, 4 WAT
In short: as §1

Soybean = settings: Table II, 4 WAT
In short: as §1

Rice = settings: Table II, 4 WAT
In short: as §1

Johnsongrass = settings: Table I, 4 WAT
In short: as §1

Barnyardgrass = settings: 4 WAT
In short: as §1

Sugar Beet = settings: Table II, 4 WAT
In short: as §1

Smartweed = settings: 4 WAT
In short: as §1

Morningglory = settings: 4 WAT
In short: as §1

## CC(C)CCSSN(CC#N)CP(=O)(Oc1ccccc1)Oc1ccccc1 [V, Phosphonic acid, [[(cyanomethyl)[(3-methylbutyl)-dithio]amino]methyl]-, diphenyl ester]
Hemp Sesbania; 1.12 kg/h
  post-emergence herbicidal activity index: 0 (0-24% control)
Hemp Sesbania; 5.6 kg/h
  post-emergence herbicidal activity index: 1 (25-49% control)
Downy Brome; Table I, 5.6 kg/h
  post-emergence herbicidal activity index: 2 (50-74% control)
Downy Brome; Table I, 11.2 kg/h
  post-emergence herbicidal activity index: 2 (50-74% control)
Downy Brome; Table II, 1.12 kg/h
  post-emergence herbicidal activity index: 2 (50-74% control)
Downy Brome; Table II, 5.6 kg/h
  post-emergence herbicidal activity index: 2 (50-74% control)
Wheat; 1.12 kg/h
  post-emergence herbicidal activity index: 0 (0-24% control)
Wheat; 5.6 kg/h
  post-emergence herbicidal activity index: 1 (25-49% control)
Canada Thistle; 5.6 kg/h
  post-emergence herbicidal activity index: 2 (50-74% control)
Canada Thistle; 11.2 kg/h
  post-emergence herbicidal activity index: 1 (25-49% control)
Quackgrass; 5.6 kg/h
  post-emergence herbicidal activity index: 1 (25-49% control)
Quackgrass; 11.2 kg/h
  post-emergence herbicidal activity index: 2 (50-74% control)
Yellow Nutsedge; 5.6 kg/h
  post-emergence herbicidal activity index: 2 (50-74% control)
Yellow Nutsedge; 11.2 kg/h
  post-emergence herbicidal activity index: 2 (50-74% control)
Velvetleaf; Table I, 5.6 kg/h
  post-emergence herbicidal activity index: 1 (25-49% control)
Velvetleaf; Table I, 11.2 kg/h
  post-emergence herbicidal activity index: 0 (0-24% control)
Velvetleaf; Table II, 1.12 kg/h
  post-emergence herbicidal activity index: 0 (0-24% control)
Velvetleaf; Table II, 5.6 kg/h
  post-emergence herbicidal activity index: 2 (50-74% control)
Crabgrass; 1.12 kg/h
  post-emergence herbicidal activity index: 1 (25-49% control)
Crabgrass; 5.6 kg/h
  post-emergence herbicidal activity index: 3 (75-99% control)
Cocklebur; Table I, 5.6 kg/h
  post-emergence herbicidal activity index: 2 (50-74% control)
Cocklebur; Table I, 11.2 kg/h
  post-emergence herbicidal activity index: 3 (75-99% control)
Cocklebur; Table II, 1.12 kg/h
  post-emergence herbicidal activity index: 1 (25-49% control)
Cocklebur; Table II, 5.6 kg/h
  post-emergence herbicidal activity index: 3 (75-99% control)
Panicum Spp; 1.12 kg/h
  post-emergence herbicidal activity index: 0 (0-24% control)
Panicum Spp; 5.6 kg/h
  post-emergence herbicidal activity index: 1 (25-49% control)
Lambsquarters; Table I, 5.6 kg/h
  post-emergence herbicidal activity index: 4 (100% control)
Lambsquarters; Table I, 11.2 kg/h
  post-emergence herbicidal activity index: 3 (75-99% control)
Lambsquarters; Table II, 1.12 kg/h
  post-emergence herbicidal activity index: 1 (25-49% control)
Lambsquarters; Table II, 5.6 kg/h
  post-emergence herbicidal activity index: 3 (75-99% control)
Wild Buckwheat; 1.12 kg/h
  post-emergence herbicidal activity index: 0 (0-24% control)
Wild Buckwheat; 5.6 kg/h
  post-emergence herbicidal activity index: 1 (25-49% control)
Sorghum; 1.12 kg/h
  post-emergence herbicidal activity index: 2 (50-74% control)
Sorghum; 5.6 kg/h
  post-emergence herbicidal activity index: 3 (75-99% control)
Soybean; 1.12 kg/h
  post-emergence herbicidal activity index: 1 (25-49% control)
Soybean; 5.6 kg/h
  post-emergence herbicidal activity index: 2 (50-74% control)
Rice; 1.12 kg/h
  post-emergence herbicidal activity index: 0 (0-24% control)
Rice; 5.6 kg/h
  post-emergence herbicidal activity index: 1 (25-49% control)
Johnsongrass; 5.6 kg/h
  post-emergence herbicidal activity index: 1 (25-49% control)
Johnsongrass; 11.2 kg/h
  post-emergence herbicidal activity index: 3 (75-99% control)
Barnyardgrass; Table I, 5.6 kg/h
  post-emergence herbicidal activity index: 2 (50-74% control)
Barnyardgrass; Table I, 11.2 kg/h
  post-emergence herbicidal activity index: 3 (75-99% control)
Barnyardgrass; Table II, 1.12 kg/h
  post-emergence herbicidal activity index: 1 (25-49% control)
Barnyardgrass; Table II, 5.6 kg/h
  post-emergence herbicidal activity index: 3 (75-99% control)
Sugar Beet; 1.12 kg/h
  post-emergence herbicidal activity index: 1 (25-49% control)
Sugar Beet; 5.6 kg/h
  post-emergence herbicidal activity index: 1 (25-49% control)
Smartweed; Table I, 5.6 kg/h
  post-emergence herbicidal activity index: 1 (25-49% control)
Smartweed; Table I, 11.2 kg/h
  post-emergence herbicidal activity index: 3 (75-99% control)
Smartweed; Table II, 1.12 kg/h
  post-emergence herbicidal activity index: 0 (0-24% control)
Smartweed; Table II, 5.6 kg/h
  post-emergence herbicidal activity index: 1 (25-49% control)
Morningglory; Table I, 5.6 kg/h
  post-emergence herbicidal activity index: 2 (50-74% control)
Morningglory; Table I, 11.2 kg/h
  post-emergence herbicidal activity index: 2 (50-74% control)
Morningglory; Table II, 1.12 kg/h
  post-emergence herbicidal activity index: 1 (25-49% control)
Morningglory; Table II, 5.6 kg/h
  post-emergence herbicidal activity index: 2 (50-74% control)
